Reference: US8802597B2, “Herbicidal pyrimidines” (E I du Pont de Nemours and Company, priority 2003, dated 2014)

Columns and labels:
Assay type in all cases: in vivo
[1] = system: blackgrass (Alopecurus myosuroides); test: Test B postemergence; conditions: scale 0 to 100 (0 no effect, 100 complete control)
Method in brief: (§1)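 Following sowing, compounds in a surfactant-bearing non-phytotoxic solvent were applied preemergence; emerged plants 2 to 18 cm high got postemergence treatment concurrently. Evaluation: 13 to 15 days later, greenhouse, 0–100 visual scale.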

wild oat (Avena fatua) = test: Test B postemergence; conditions: scale 0 to 100 (0 no effect, 100 complete control)
Method in brief: as §1

[2] = system: lambsquarters (Chenopodium album); test: Test B pre/postemergence; conditions: for Lambsquarters plant response rating: Postemergence; for Plant response rating, Lambsquarters: Preemergence
Method in brief: as §1

[3] = system: wheat (Triticum aestivum); test: Test B pre/postemergence; conditions: for Wheat plant response rating: Postemergence; for Plant response rating, Wheat: Preemergence
Method in brief: as §1

[4] = system: crabgrass (Digitaria sanguinalis); test: Test B pre/postemergence; conditions: for Crabgrass plant response rating: Postemergence; for Plant response rating, Crabgrass: Preemergence
Method in brief: as §1

[5] = system: morningglory (Ipomoea coccinea); test: Test B pre/postemergence; conditions: for Morningglory plant response rating: Postemergence; for Plant response rating, Morningglory: Preemergence
Method in brief: as §1

[6] = system: velvetleaf (Abutilon theophrasti); test: Test B pre/postemergence; conditions: for Velvetleaf plant response rating: Postemergence; for Plant response rating, Velvetleaf: Preemergence
Method in brief: as §1

[7] = system: cocklebur (Xanthium strumarium); test: Test B pre/postemergence; conditions: for Cocklebur plant response rating: Postemergence; for Plant response rating, Cocklebur: Preemergence
Method in brief: as §1

[8] = system: barnyardgrass (Echinochloa crus-galli); test: Test B pre/postemergence; conditions: for Barnyardgrass plant response rating: Postemergence; for Plant response rating, Barnyardgrass: Preemergence
Method in brief: as §1

[9] = system: pigweed (Amaranthus retroflexus); test: Test B pre/postemergence; conditions: for Pigweed plant response rating: Postemergence; for Plant response rating, Pigweed: Preemergence
Method in brief: as §1

corn (Zea mays) = test: Test B pre/postemergence; conditions: for Corn plant response rating: Postemergence; for Plant response rating, Corn: Preemergence
Method in brief: as §1

[10] = system: Surinam grass (Brachiaria decumbens); test: Test B pre/postemergence; conditions: for Surinam Grass plant response rating: Postemergence; for Plant response rating, Surinam Grass: Preemergence
Method in brief: as §1

[11] = system: giant foxtail (Setaria faberii); test: Test B pre/postemergence; conditions: for Foxtail, Giant plant response rating: Postemergence; for Plant response rating, Foxtail, Giant: Preemergence
Method in brief: as §1

rice (Oryza sativa) = test: Test B flooded paddy test; conditions: Flood, scale 0 to 100
Method in brief: (§2)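 Visual injury scoring (0 = no effect, 100 = complete control) versus controls made 13 to 15 days after treatment in the greenhouse. Test species were grown in flooded paddy to the 2-leaf stage: rice, barnyardgrass, umbrella sedge, duck salad.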

[12] = system: duck salad (Heteranthera limosa); test: Test B flooded paddy test; conditions: Flood, scale 0 to 100
Method in brief: as §2

[13] = system: barnyardgrass (Echinochloa crus-galli); test: Test B flooded paddy test; conditions: Flood, scale 0 to 100
Method in brief: as §2

[14] = system: umbrella sedge (Cyperus difformis); test: Test B flooded paddy test; conditions: Flood, scale 0 to 100
Method in brief: as §2

[15] = 62 g ai/ha, scale 0 to 100 (0 no effect, 100 complete control)
[16] = 125 g ai/ha, scale 0 to 100 (0 no effect, 100 complete control)
[17] = 62 g ai/ha, scale 0 to 100, 0 no effect, 100 complete control
[18] = Oryza sativa, 125 g ai/ha, read-out: Plant response rating, Rice
[19] = Oryza sativa, 500 g ai/ha, read-out: Plant response rating, Rice
[20] = Heteranthera limosa, 125 g ai/ha, read-out: Plant response rating, Ducksalad
[21] = Heteranthera limosa, 500 g ai/ha, read-out: Plant response rating, Ducksalad
[22] = Echinochloa crus-galli, 125 g ai/ha, read-out: Plant response rating, Barnyardgrass
[23] = Echinochloa crus-galli, 500 g ai/ha, read-out: Plant response rating, Barnyardgrass
[24] = Cyperus difformis, 125 g ai/ha, read-out: Plant response rating, Sedge, Umbrella
[25] = Cyperus difformis, 500 g ai/ha, read-out: Plant response rating, Sedge, Umbrella

## COC(=O)c1nc(-c2ccc(Cl)cc2)nc(N)c1Br [Compound 83]
[1]; 62 g ai/ha
  Blackgrass plant response rating: 50
[1]; 125 g ai/ha
  Blackgrass plant response rating: 60
Wild oat (Avena fatua); 62 g ai/ha
  Oat, Wild plant response rating: 0
Wild oat (Avena fatua); 125 g ai/ha
  Oat, Wild plant response rating: 40
[2]; [15]
  Lambsquarters plant response rating: 100
[2]; [16]
  Lambsquarters plant response rating: 100
  Plant response rating, Lambsquarters: 90
[2]; [17]
  Plant response rating, Lambsquarters: 70
[3]; [15]
  Wheat plant response rating: 0
[3]; [16]
  Wheat plant response rating: 30
  Plant response rating, Wheat: 50
[3]; [17]
  Plant response rating, Wheat: 20
[4]; [15]
  Crabgrass plant response rating: 50
[4]; [16]
  Crabgrass plant response rating: 60
  Plant response rating, Crabgrass: 60
[4]; [17]
  Plant response rating, Crabgrass: 30
[5]; [15]
  Morningglory plant response rating: 60
[5]; [16]
  Morningglory plant response rating: 100
  Plant response rating, Morningglory: 10
[5]; [17]
  Plant response rating, Morningglory: 0
[6]; [15]
  Velvetleaf plant response rating: 80
[6]; [16]
  Velvetleaf plant response rating: 90
  Plant response rating, Velvetleaf: 60
[6]; [17]
  Plant response rating, Velvetleaf: 50
[7]; [15]
  Cocklebur plant response rating: 90
[7]; [16]
  Cocklebur plant response rating: 100
  Plant response rating, Cocklebur: 50
[7]; [17]
  Plant response rating, Cocklebur: 10
[8]; [15]
  Barnyardgrass plant response rating: 50
[8]; [16]
  Barnyardgrass plant response rating: 80
  Plant response rating, Barnyardgrass: 30
[8]; [17]
  Plant response rating, Barnyardgrass: 20
[9]; [15]
  Pigweed plant response rating: 100
[9]; [16]
  Pigweed plant response rating: 100
  Plant response rating, Pigweed: 100
[9]; [17]
  Plant response rating, Pigweed: 80
Corn (Zea mays); [15]
  Corn plant response rating: 10
Corn (Zea mays); [16]
  Corn plant response rating: 10
  Plant response rating, Corn: 0
Corn (Zea mays); [17]
  Plant response rating, Corn: 0
[10]; [15]
  Surinam Grass plant response rating: 50
[10]; [16]
  Surinam Grass plant response rating: 60
  Plant response rating, Surinam Grass: 10
[10]; [17]
  Plant response rating, Surinam Grass: 0
[11]; [15]
  Foxtail, Giant plant response rating: 40
[11]; [16]
  Foxtail, Giant plant response rating: 50
  Plant response rating, Foxtail, Giant: 10
[11]; [17]
  Plant response rating, Foxtail, Giant: 0
Rice (Oryza sativa); 125 g ai/ha
  Plant response rating, Rice: 0
Rice (Oryza sativa); 500 g ai/ha
  Plant response rating, Rice: 0
[12]; 125 g ai/ha
  Plant response rating, Ducksalad: 100
[12]; 500 g ai/ha
  Plant response rating, Ducksalad: 100
[13]; 125 g ai/ha
  Plant response rating, Barnyardgrass: 0
[13]; 500 g ai/ha
  Plant response rating, Barnyardgrass: 0
[14]; 125 g ai/ha
  Plant response rating, Sedge, Umbrella: 90
[14]; 500 g ai/ha
  Plant response rating, Sedge, Umbrella: 100

## CCOC(=O)c1nc(-c2ccc(I)cc2)nc(N)c1Cl [Compound 133]
[1]; 62 g ai/ha
  Blackgrass plant response rating: 60
[1]; 125 g ai/ha
  Blackgrass plant response rating: 70
Wild oat (Avena fatua); 62 g ai/ha
  Oat, Wild plant response rating: 40
Wild oat (Avena fatua); 125 g ai/ha
  Oat, Wild plant response rating: 60
[2]; [15]
  Lambsquarters plant response rating: 100
[2]; [16]
  Lambsquarters plant response rating: 100
  Plant response rating, Lambsquarters: 70
[3]; [15]
  Wheat plant response rating: 0
[3]; [16]
  Wheat plant response rating: 50
  Plant response rating, Wheat: 60
[3]; [17]
  Plant response rating, Wheat: 50
[4]; [15]
  Crabgrass plant response rating: 60
[4]; [16]
  Crabgrass plant response rating: 70
  Plant response rating, Crabgrass: 70
[4]; [17]
  Plant response rating, Crabgrass: 40
[5]; [15]
  Morningglory plant response rating: 70
[5]; [16]
  Morningglory plant response rating: 100
  Plant response rating, Morningglory: 0
[5]; [17]
  Plant response rating, Morningglory: 0
[6]; [15]
  Velvetleaf plant response rating: 90
[6]; [16]
  Velvetleaf plant response rating: 100
  Plant response rating, Velvetleaf: 60
[6]; [17]
  Plant response rating, Velvetleaf: 50
[7]; [15]
  Cocklebur plant response rating: 100
[7]; [16]
  Cocklebur plant response rating: 100
  Plant response rating, Cocklebur: 50
[7]; [17]
  Plant response rating, Cocklebur: 20
[8]; [15]
  Barnyardgrass plant response rating: 70
[8]; [16]
  Barnyardgrass plant response rating: 70
  Plant response rating, Barnyardgrass: 30
[8]; [17]
  Plant response rating, Barnyardgrass: 30
[9]; [15]
  Pigweed plant response rating: 90
[9]; [16]
  Pigweed plant response rating: 100
  Plant response rating, Pigweed: 80
[9]; [17]
  Plant response rating, Pigweed: 70
Corn (Zea mays); [15]
  Corn plant response rating: 70
Corn (Zea mays); [16]
  Corn plant response rating: 80
  Plant response rating, Corn: 0
Corn (Zea mays); [17]
  Plant response rating, Corn: 0
[10]; [15]
  Surinam Grass plant response rating: 60
[10]; [16]
  Surinam Grass plant response rating: 70
  Plant response rating, Surinam Grass: 10
[10]; [17]
  Plant response rating, Surinam Grass: 0
[11]; [15]
  Foxtail, Giant plant response rating: 60
[11]; [16]
  Foxtail, Giant plant response rating: 70
  Plant response rating, Foxtail, Giant: 20
[11]; [17]
  Plant response rating, Foxtail, Giant: 0
Rice (Oryza sativa); 125 g ai/ha
  Plant response rating, Rice: 0
Rice (Oryza sativa); 500 g ai/ha
  Plant response rating, Rice: 0
[12]; 125 g ai/ha
  Plant response rating, Ducksalad: 90
[12]; 500 g ai/ha
  Plant response rating, Ducksalad: 90
[13]; 125 g ai/ha
  Plant response rating, Barnyardgrass: 0
[13]; 500 g ai/ha
  Plant response rating, Barnyardgrass: 0
[14]; 125 g ai/ha
  Plant response rating, Sedge, Umbrella: 90
[14]; 500 g ai/ha
  Plant response rating, Sedge, Umbrella: 90

## COC(=O)c1nc(C2CC2)nc(N)c1OC [Compound 59]
Rice (Oryza sativa); [18]
  plant injury at 125 g/ha: 0%
Rice (Oryza sativa); [19]
  plant injury at 500 g/ha: 0%
[12]; [20]
  pest or weed control at 125 g/ha: 0%
[12]; [21]
  pest or weed control at 500 g/ha: 0%
[13]; [22]
  pest or weed control at 125 g/ha: 0%
[13]; [23]
  pest or weed control at 500 g/ha: 0%
[14]; [24]
  pest or weed control at 125 g/ha: 0%
[14]; [25]
  pest or weed control at 500 g/ha: 0%

## CCOC(=O)c1nc(-c2ccc(Cl)cc2)nc(N)c1Cl [Compound 64, ethyl 6-amino-5-chloro-2-(4-chlorophenyl)-4-pyrimidinecarboxylate]
Rice (Oryza sativa); Oryza sativa, 62 g ai/ha, read-out: Plant response rating, Rice
  plant injury at 62 g/ha: 0%
Rice (Oryza sativa); [18]
  plant injury at 125 g/ha: 0%
Rice (Oryza sativa); Oryza sativa, 250 g ai/ha, read-out: Plant response rating, Rice
  plant injury at 250 g/ha: 0%
Rice (Oryza sativa); [19]
  plant injury at 500 g/ha: 0%
[12]; Heteranthera limosa, 62 g ai/ha, read-out: Plant response rating, Ducksalad
  pest or weed control at 62 g/ha: 80%
[12]; [20]
  pest or weed control at 125 g/ha: 90%
[12]; Heteranthera limosa, 250 g ai/ha, read-out: Plant response rating, Ducksalad
  pest or weed control at 250 g/ha: 100%
[12]; [21]
  pest or weed control at 500 g/ha: 100%
[13]; Echinochloa crus-galli, 62 g ai/ha, read-out: Plant response rating, Barnyardgrass
  pest or weed control at 62 g/ha: 0%
[13]; [22]
  pest or weed control at 125 g/ha: 0%
[13]; Echinochloa crus-galli, 250 g ai/ha, read-out: Plant response rating, Barnyardgrass
  pest or weed control at 250 g/ha: 0%
[13]; [23]
  pest or weed control at 500 g/ha: 0%
[14]; Cyperus difformis, 62 g ai/ha, read-out: Plant response rating, Sedge, Umbrella
  pest or weed control at 62 g/ha: 0%
[14]; [24]
  pest or weed control at 125 g/ha: 0%
[14]; Cyperus difformis, 250 g ai/ha, read-out: Plant response rating, Sedge, Umbrella
  pest or weed control at 250 g/ha: 70%
[14]; [25]
  pest or weed control at 500 g/ha: 90%
